In EP4050002A1, “ANTI-PROLIFERATIVE AGENTS” (First Health Pharmaceuticals B.V., priority 2021, dated 2022):

Experiments:
A549 Red-FLuc = experiment: Cytotoxicity, cell count method; type: cell-based; conditions: Homo sapiens, 72 hours of incubation
Description: The anti-tumor activity of the compounds of the present invention was evaluated as the effect on the proliferation and survival of tumor cells by counting the number of living cells in presence or absence of the compounds ("cell count method"), and as the effect on the viability and metabolic activity of the cells, by using particular substrates that are converted by cellular enzymes into coloured or luminescent products, proportionally with metabolic activity and state of the cell, such as the MTS tetrazolium compound ("MTS method") or luciferin ("ATP-based method") respectively.
Cells were seeded at 3 to 5 x 10^4 cells/well density depending on cell lines and maintained at 37°C in 5% CO2. After 24 hours cells were treated with ascending concentrations of the investigational compounds and the reference (5-fluoro-Uracyl) in a range from 0 to 100 µM. Compounds were dissolved in DMSO which final concentration in each well was 0.5% v:v. After 72 h of incubation with compounds, the cells were detached with trypsin and re-suspended in 1 ml of complete medium; the cell number was evaluated using a Z2 Coulter Counter ("cell count method") (Attallah and Johnson, A simple highly sensitive methods for the determination of cell viability using an electronic particle analyzer, Coulter counter J. Immunol. Methods. 1981, 41, 155; Leonardi et al., Activated kinase screening identifies the IKBKE oncogene as a positive regulator of autophagy. Autophagy, 2019, 15, 312). Alternatively, after the 72 hours of incubation with compounds, the MTS solution (CellTiter 96® AQueous One Solution Cell Proliferation Assay) is added to each well and absorbance at 490 nm wavelength is read after 2 hours of incubation ("MTS method"). Results in Tables 8-13, 17, 18 were obtained with the cell count method. Results in Tables 14-15 were obtained with the MTS method. Results in Table 16 were obtained with ATP-based method.

DDX3X = DDX3X (Homo sapiens, UniProt O00571); experiment: Helicase assay (unwinding of 18/36mer dsRNA); type: biochemical; parameters: host or cells: 293T cells (transient transfection, anti-HA immunoprecipitation, protein kept on beads); conditions: 50, 250 and 500 µM, in presence of ATP
Description: The DDX3X protein was obtained by immunoprecipitation from 293T cells (3x10^5) were seeded in 6-well plates and, after 24h, transfected with 1 µg of HA-DDX3 (Addgene plasmid # 44975) by using the Lipofectamine reagent (Thermo Fischer Scientific). After 36 h, cells were lysed in NP-40 Lysis Buffer (20 mM HEPES pH=7.5, 10 mM EGTA pH=8, 40 mM β-glycerolphosphate, 1% NP40, 2.5 mM MgCl2, 2 mM Orthovanadate, 2 mM NaF, 1 mM DTT, and 1X protease inhibitors mixture) and 2 mg of proteins were immunoprecipitated with anti-HA antibodies (Covance) in NP40 lysis buffer. Immunoprecipitated samples were washed twice with lysis buffer and one time in helicase reaction buffer (50 mM Tris HCl pH=8, 1 mM DTT, 5% glycerol, 10 mM MgCl2). Beads were then resuspended in 100 µl in helicase reaction buffer. […]
Ultimately, reactions were performed in a final volume 100 µl of helicase reaction buffer plus ATP 4 mM, 30 µl of beads used to immunoprecipitate HA-DDX3X, 20 nM of 18/36mer dsRNA and 100 nM of competitor at 37°C for 1 hour and stopped by adding 10 µl of a stopping solution (EDTA 60 mM pH=8, 40% glycerol, 0.6% SDS, 1% Orange G). […] Quantification of the ssRNA was performed by the ImageJ software (version 1.53, NIH). […]

DDX3X, sequence (O00571 whole entry): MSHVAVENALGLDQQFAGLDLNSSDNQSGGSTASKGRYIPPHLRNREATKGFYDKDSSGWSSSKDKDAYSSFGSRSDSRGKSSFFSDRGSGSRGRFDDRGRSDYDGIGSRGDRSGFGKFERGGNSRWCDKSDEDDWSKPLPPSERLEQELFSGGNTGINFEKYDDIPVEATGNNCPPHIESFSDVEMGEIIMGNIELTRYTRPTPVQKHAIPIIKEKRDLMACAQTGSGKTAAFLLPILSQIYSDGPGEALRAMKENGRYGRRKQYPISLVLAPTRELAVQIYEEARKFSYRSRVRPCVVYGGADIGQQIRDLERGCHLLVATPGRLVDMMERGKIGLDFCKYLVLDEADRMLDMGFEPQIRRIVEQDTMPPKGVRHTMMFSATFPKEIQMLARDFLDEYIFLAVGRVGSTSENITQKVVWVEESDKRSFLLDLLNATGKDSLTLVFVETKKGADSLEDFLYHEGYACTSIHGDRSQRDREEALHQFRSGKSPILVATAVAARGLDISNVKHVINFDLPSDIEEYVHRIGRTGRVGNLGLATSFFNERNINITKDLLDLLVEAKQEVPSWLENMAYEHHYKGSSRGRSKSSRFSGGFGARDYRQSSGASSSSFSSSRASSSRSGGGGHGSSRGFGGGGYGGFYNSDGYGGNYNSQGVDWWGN

In the case of `CCCCc1cn(-c2ccc(-c3nnc(-c4cccc(C(=O)O)c4)o3)cc2)nn1` [Compound 16, 3-(5-(4-(4-butyl-1H-1,2,3-triazol-1-yl)phenyl)-1,3,4-oxadiazol-2-yl)benzoic acid], the IC50 (A549 Red-FLuc) is reported as 18.1 µM and the “inhibitory effect on DDX3X helicase activity” value (DDX3X) is reported as “inhibitory effect on DDX3X helicase activity”.
